Laboratory results as given in patent publication US5608084A, “Lactones with antioxidising and hypolipidaemic activity useful in the therapy of the atherosclerosis” (priority 1994, dated 1997).
Where two headings read alike, the source gives them in different places.

Assays:
men and women = conditions: considerable amounts of Vitamin E; cited from earlier work
LDL = conditions: in vitro, LDL incubated with antioxidizer; cited from earlier work
HepG2 = experiment: Incorporation of 14C-acetate in the lipidic classes in HepG2 cells (hypolipidaemic activity); type: cell-based, human; conditions: for Incorporation of 14C-acetate: Cholesterol / Incorporation of 14C-acetate: Esters of Cholesterol / Incorporation of 14C-acetate: Fatty acids / Incorporation of 14C-acetate: Phospholipids / Incorporation of 14C-acetate: Triglycerides: per culture plate; for inhibition at 1 µM / inhibition at 10 µM: Homo sapiens, HepG2
Experimental: The hypolipidaemic activity of some lactones of general formula I has been evaluated in vitro by testing their influence on the synthesis of the cell lipids like cholesterol, fatty acids, triglycerides, phospholipids and esters of the cholesterol, described by Barnhard J. W. in Amer. J. Cardiol., 62, 52B-56B, (1988).
The synthesis of the lipids has been studied by incubating cells coming from a human hepatocarcinoma (HepG2-American Type Culture Collection) in presence of ^14 C-acetate (Amersham) and by measuring the incorporation of the radioactive precursor in the main lipidic classes by means of chromatographic separation on silica gel (Merck F254), according to the method described by Skipski V. P. et al. in Biochem. Biophys. Acta, 106, 386-396, (1965) and by means of scintillographic dosage with β-counter Beckman scintillator, according to the method reported by Gherardi E. and Calandra S. in Lipids, 15, 108-112, (1980).
The data reported in tables 4 and 5 refer to the incorporation of ^14 C-acetate in the various lipidic classes, expressed as radioactivity in count per minute (cpm) for culture plate, for some lactones, in comparison with the probucol and the gemfibrozil, used as positive controls and with the solvent ethanol, used as negative control.
The percents in brackets express the lowering of the ^14 C-acetate in the various lipidic classes referred to the control, i.e. to the physiological solution. […] The confluence cells have been exposed to the products tested for 24 hours; at the end of the incubation the monolayer has been solubilized and the optical density of the lysate at λ260 nm has been measured. The value of the absorbance is direct function of the amount of the macromolecules present and therefore indirectly of the number of the cells.

Vitamin E
risk of vascular pathologies (men and women): lowering of the risk of vascular pathologies | atherogenic potentialities of the LDL (LDL): remarkably lowered

Cc1ccc(C)c(OCCCC(C)(C)C(=O)O)c1 [Gemfibrozil, reference compound]
influence on the synthesis of the triglycerides (HepG2): remarkable activity | Incorporation of 14C-acetate: Cholesterol (HepG2; 1 μM): 20820 cpm | Incorporation of 14C-acetate: Esters of Cholesterol (HepG2; 1 μM): 968 cpm | Incorporation of 14C-acetate: Fatty acids (HepG2; 1 μM): 299 cpm | Incorporation of 14C-acetate: Phospholipids (HepG2; 1 μM): 132598 cpm | Incorporation of 14C-acetate: Triglycerides (HepG2; 1 μM): 84593 cpm | Incorporation of 14C-acetate: Cholesterol (HepG2; 10 μM): 25306 cpm | Incorporation of 14C-acetate: Esters of Cholesterol (HepG2; 10 μM): 1156 cpm | Incorporation of 14C-acetate: Fatty acids (HepG2; 10 μM): 376 cpm | Incorporation of 14C-acetate: Phospholipids (HepG2; 10 μM): 164252 cpm | Incorporation of 14C-acetate: Triglycerides (HepG2; 10 μM): 96533 cpm | inhibition at 1 µM (HepG2; 1 μM, read-out: Incorporation of 14C-acetate: Cholesterol, percent referred to physiological solution): 34% | inhibition at 1 µM (HepG2; 1 μM, read-out: Incorporation of 14C-acetate: Esters of Cholesterol, percent referred to physiological solution): 76% | inhibition at 1 µM (HepG2; 1 μM, read-out: Incorporation of 14C-acetate: Fatty acids, percent referred to physiological solution): 55% | inhibition at 1 µM (HepG2; 1 μM, read-out: Incorporation of 14C-acetate: Phospholipids, percent referred to physiological solution): 47% | inhibition at 1 µM (HepG2; 1 μM, read-out: Incorporation of 14C-acetate: Triglycerides, percent referred to physiological solution): 22% | inhibition at 10 µM (HepG2; 10 μM, read-out: Incorporation of 14C-acetate: Cholesterol, percent referred to physiological solution): 20% | inhibition at 10 µM (HepG2; 10 μM, read-out: Incorporation of 14C-acetate: Esters of Cholesterol, percent referred to physiological solution): 71% | inhibition at 10 µM (HepG2; 10 μM, read-out: Incorporation of 14C-acetate: Fatty acids, percent referred to physiological solution): 44% | inhibition at 10 µM (HepG2; 10 μM, read-out: Incorporation of 14C-acetate: Phospholipids, percent referred to physiological solution): 34% | inhibition at 10 µM (HepG2; 10 μM, read-out: Incorporation of 14C-acetate: Triglycerides, percent referred to physiological solution): 11% | activity as regards the synthesis of the esters of the cholesterol (HepG2; summary of Table 4): 70-75%
